Measurements published in patent publication US11065240B2, “Drug combinations to treat multiple myeloma” (Exelixis, Inc., priority 2014, dated 2021).

Columns and labels:
[1] = test system: 5TGM1 mouse myeloma cells; assay: 5TGM1 murine multiple myeloma model, study 2: overall survival, alone or in combination; format: in vivo; settings: for prolongation of overall survival (OS) compared to vehicle, statistical significance / median survival time: bortezomib 0.5 mg/kg ip twice a week, cabozantinib 10 mg/kg PO QD; for median survival time: vehicle 36 d, FIG. 1
Experimental: Cabozantinib (XL184) is obtained from the Exelixis in powder form. It is dissolved in sterile water to a concentration of 1 mg/ml for dosing at 10 mg/kg or 30 mg/kg. The dosing solution is prepared daily within one hour before dosing. The undissolved test compound will be stored at ambient or room temperature in a dry environment such as in a dessicator. The test compound is administered daily by oral gavage.
Bortezomib is obtained from LC Laboratories (Boston, Mass., USA) in powder form and dissolved in EtOH. The stock solution is stored at −20° C. The bortezomib dosing solutions are prepared fresh for every dosing as follows: 25 μl of the stock solution of 25 mg/ml of bortezomib (LC Laboratories, Boston, Mass., USA) in EtOH and 25 μl of EtOH is diluted in 3.61 ml of 0.9% NaCl to obtain the concentration of 0.17 mg/ml. The dosing volume is 3 ml/kg, resulting in the dose 0.5 mg/kg. Bortezomib is administered intraperitoneally twice a week.
5TGM1 mouse multiple myeloma cells are obtained from the Department of Molecular Medicine, University of Texas Health Science Center at San Antonio. Cell culturing is performed according to standard procedures. 5TGM1 mouse myeloma cells (2×10^6 cells in 0.1 ml of PBS) are inoculated into the tail vein of the mice at day 0. Viability of the cells will be determined before and after the inoculations. Cancer cell inoculation will cause the mice to develop a bone disease typical for multiple myeloma.
Statistical analysis will be performed with statistical software R (version 2.14.0 or newer, www.r-project.org) or OriginPro (version 8.6 or newer, OriginLab, Northampton, Mass., USA). The mean and standard deviation of each parameter will be determined. All statistical analyses will be performed as two-sided tests. Normal distribution and homogeneity of variance will be checked before further analyses. In case of violating these assumptions, either log transformation or other appropriate transformation (e.g. square root, reciprocal) will be applied. If the assumptions are fulfilled as such or after transformation, Oneway ANOVA will be used for end-point parameters to assess whether the values obtained between groups are statistically different (with p<0.05) followed by Tukey test for comparison against the control group. If the assumptions are not fulfilled even after the transformations described above, rank-transformation will be applied and the non-parametric Kruskal-Wallis test followed by Mann-Whitney U-test will be used. Linear mixed effects model will be used for repeated measurements like biochemical markers.
Female C57BL/KaLwRij mice were allocated to treatment groups (n=15 per group) with equivalent average body weights. Four experimental groups were utilized in each of 2 studies: a vehicle control group, and groups receiving single agent bortezomib (0.5 mg/kg ip twice a week) or cabozantinib (10 mg/kg, PO QD). Study 1 also included a higher dose cabozantinib group (30 mg/kg, PO QD), and study 2 included a combination group: bortezomib (0.5 mg/kg ip twice a week) plus cabozantinib (10 mg/kg, PO QD). […]
On day 0, animals were inoculated with 5TGM1 mouse myeloma cells by IV administration. […] Body weights were determined twice a week and blood samples were collected on days—1, 15, 22, and 34 for analysis of paraprotein (IgG2b) and TRACP 5b. In study 1 the development of osteolytic lesions was detected by radiography at the end of the study. […]

[2] = test system: 5TGM1 mouse myeloma cells; assay: 5TGM1 murine multiple myeloma model, study 1: bone lesions and tumor burden; format: in vivo; settings: for bone protective properties/effects: cabozantinib 10 or 30 mg/kg PO QD; for frequency of soft tissue lesions: cabozantinib both doses (10 and 30 mg/kg PO QD)
Experimental: Cabozantinib (XL184) is obtained from the Exelixis in powder form. It is dissolved in sterile water to a concentration of 1 mg/ml for dosing at 10 mg/kg or 30 mg/kg. The dosing solution is prepared daily within one hour before dosing. The undissolved test compound will be stored at ambient or room temperature in a dry environment such as in a dessicator. The test compound is administered daily by oral gavage. Bortezomib is obtained from LC Laboratories (Boston, Mass., USA) in powder form and dissolved in EtOH. The stock solution is stored at -20° C. The bortezomib dosing solutions are prepared fresh for every dosing as follows: 25 μl of the stock solution of 25 mg/ml of bortezomib (LC Laboratories, Boston, Mass., USA) in EtOH and 25 μl of EtOH is diluted in 3.61 ml of 0.9% NaCl to obtain the concentration of 0.17 mg/ml. The dosing volume is 3 ml/kg, resulting in the dose 0.5 mg/kg. Bortezomib is administered intraperitoneally twice a week. 5TGM1 mouse multiple myeloma cells are obtained from the Department of Molecular Medicine, University of Texas Health Science Center at San Antonio. Cell culturing is performed according to standard procedures. 5TGM1 mouse myeloma cells (2×10^6 cells in 0.1 ml of PBS) are inoculated into the tail vein of the mice at day 0. Viability of the cells will be determined before and after the inoculations. Cancer cell inoculation will cause the mice to develop a bone disease typical for multiple myeloma. Blood samples will be collected from the saphenous vein before the inoculation of cancer cells, at days 15, 22, 35 and at sacrifice. The serum samples will be prepared within one hour of sampling, and stored at -70° C. Serum paraprotein IgG2b will be analyzed using mouse IgG2b ELISA quantitation kit (Bethyl Laboratories Inc, Montgomery, Tex., USA). Serum […] activity and PINP concentration will be analyzed using Mouse TRAP and Mouse PINP kits (IDS, Boldon, UK). The development of the myeloma bone disease is monitored by x-ray radiography at day 35. Animals will be anesthethized by isoflurane and x-rayed in a prone position with the Faxitron Specimen Radiographic System MX-20 D12 (Faxitron Corp. Illinois, USA) using Faxitron Dicom 3.0-software. At least one radiograph (both hind limbs) per animal will be taken on each x-ray occasion (31 kV, 10 seconds, magnification 2×). The lesion number and lesion area in hind limbs will be determined from the images with MetaMorph image analysis software. Statistical analysis will be performed with statistical software R (version 2.14.0 or newer, www.r-project.org) or OriginPro (version 8.6 or newer, OriginLab, Northampton, Mass., USA). The mean and standard deviation of each parameter will be determined. All statistical analyses will be performed as two-sided tests. Normal distribution and homogeneity of variance will be checked before further analyses. In case of violating these assumptions, either log transformation or other appropriate transformation (e.g. square root, reciprocal) will be applied. If the assumptions are fulfilled as such or after transformation, Oneway ANOVA will be used for end-point parameters to assess whether the values obtained between groups are statistically different (with p<0.05) followed by Tukey test for comparison against the control group. If the assumptions are not fulfilled even after the transformations described above, rank-transformation will be applied and the non-parametric Kruskal-Wallis test followed by Mann-Whitney U-test will be used. Linear mixed effects model will be used for repeated measurements like biochemical markers. Female C57BL/KaLwRij mice were allocated to treatment groups (n=15 per group) with equivalent average body weights. Four experimental groups were utilized in each of 2 studies: a vehicle control group, and groups receiving single agent bortezomib (0.5 mg/kg ip twice a week) or cabozantinib (10 mg/kg, PO QD). […]

[3] = study 1, bortezomib 0.5 mg/kg ip twice a week
[4] = study 1, 30 mg/kg PO QD, radiography at end of study
[5] = study 1, both the 10 and 30 mg/kg doses PO QD

Q: For `CC(C)C[C@H](NC(=O)[C@H](Cc1ccccc1)NC(=O)c1cnccn1)B(O)O` [bortezomib, reference compound], which “prolongation of overall survival (OS) compared to vehicle, statistical significance” value [1] is on record?
A: The value was “not”.

Q: And the median survival time [1]?
A: Its median survival time is 43 days.

Q: And the bone protective properties/effects [2, 3]?
A: The bone protective properties/effects was “did not show bone protective properties”.

Q: What about the “frequency of soft tissue lesions” value [2, 3] of the same molecule?
A: Its value is “decreased”.

Q: What about the “serum IgG2b levels” value ([2]; study 1, female C57BL/KaLwRij mice, bortezomib 0.5 mg/kg ip twice a week, vs vehicle) of the same molecule?
A: Its value is “reduced”.

Q: Which results are given for `COc1cc2nccc(Oc3ccc(NC(=O)C4(C(=O)Nc5ccc(F)cc5)CC4)cc3)c2cc1OC` [cabozantinib, N-(4-{[6,7-bis(methyloxy)quinolin-4-yl]oxy}phenyl)-N′-(4-fluorophenyl)cyclopropane-1,1-dicarboxamide]?
A: prolongation of overall survival (OS) compared to vehicle, statistical significance [1]: statistically significant; median survival time [1]: 48 days; prolongation of overall survival (conclusion, comparator not stated) ([1]; conclusions): statistically-significant prolongation; bone-protective and anti-tumor effects (conclusion) ([2]; murine model of MM, conclusions): showed both bone-protective and anti-tumor effects; mean area of osteolytic lesions [2, 4]: reduced; total area of osteolytic lesions [2, 4]: reduced; necrotic tumor area in bone ([2]; study 1, 10 and 30 mg/kg PO QD): dose dependently increased; bone protective properties/effects [2, 3]: exhibited bone protective effects; frequency of soft tissue lesions [2, 3]: decreased; start of the rise in serum IgG2b ([2]; study 1, both cabozantinib-treated groups (10 and 30 mg/kg), vs vehicle control): started earlier than vehicle control; relative IgG2b at sacrifice ([2]; study 1, both cabozantinib-treated groups, vs vehicle control): a significant difference was not observed; osteoclast counts at the tumor-bone interface [2, 5]: reduced; serum TRACP 5b values [2, 5]: reduced; relative bone area ([2]; study 1, histomorphometry, vs control): did not differ from control
